From patent publication US8247211B2, “Glycopeptide antibiotics” (American Cyanamid Company, priority 2001, dated 2012)
Converted amounts (≈) assume the structure as drawn.

Experiments:
Test in all cases: In vitro antibacterial evaluation: minimum inhibitory concentration (MIC), broth dilution method
Assay type in all cases: cell-based
[1] = tested on: Escherichia coli; conditions: 18 hours at 35° C.
Procedure, shortened: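 An MIC is reported for each organism as the least concentration giving inhibition, using broth dilution over 64-0.06 μg/mL with a 5×10^5 CFU/mL inoculum.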

[2] = tested on: Staphylococcus sp.
Procedure, shortened: (§1)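 Inoculum: 5×10^5 CFU/mL. Range: 64-0.06 μg/mL. Medium: Muller-Hinton II […]; NCCLS M7-A2 broth dilution. Endpoint: lowest concentration inhibiting growth. Strains include methicillin-, penicillin- and/or vancomycin-resistant clinical isolates.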

[3] = tested on: Enterococcus sp.; conditions: 18 hours at 35° C.
Procedure, shortened: as §1

[4] = tested on: Streptococcus sp.; conditions: 18 hours at 35° C.
Procedure, shortened: as §1

[5] = Enterococcus faecalis (ATCC 29212)
[6] = Enterococcus faecalis (GC 2242)
[7] = Enterococcus faecalis (GC 4552)
[8] = Enterococcus faecalis (GC 4553)
[9] = Enterococcus faecalis (GC 4554)
[10] = broth dilution, inoculum 5×10^5 CFU/mL
[11] = Streptococcus agalactiae (GC 4564)
[12] = Streptococcus pneumoniae (GC 4565)

Structure (SMILES): CCCCN1CC(C(O)C2NC(=O)C(C(O)C3CNC(=N)N3)NC(=O)C(Cc3ccc(OC4OC(CO)C(OC5OC6COC7(OC6C(O)C5O)C5CC6CC(C5)CC7C6)C(O)C4O)cc3)NC(=O)C(C(C)c3ccccc3)NC(=O)CNC(=O)C(CO)NC2=O)N(C2OC(CO)C(O)C(O)C2O)C1=N (stereo not drawn) [Example 224, Cyclo[glycyl-β-methylphenylalanyl-O-[4-O-[4,6-O-(2-adamantylidene)hexopyranosyl]hexopyranosyl]tyrosyl-3-(2-iminoimidazolidin-4-yl)seryl-3-(1-butyl-3-hexopyranosyl-2-iminoimidazolidin-4-yl)serylseryl]]
- MIC Escherichia coli (GC 4559) [1]: 64 µg/mL (≈ 43.1 µM)
- MIC Escherichia coli (GC 4560) [1]: 2 µg/mL (≈ 1.35 µM)
- MIC Staphylococcus aureus (ATCC 29213) ([2]; strain ATCC 29213): 2 µg/mL (≈ 1.35 µM)
- MIC Staphylococcus aureus (GC 1131) ([2]; strain GC 1131): 4 µg/mL (≈ 2.7 µM)
- MIC Staphylococcus aureus (GC 3051) ([2]; strain GC 3051): 2 µg/mL (≈ 1.35 µM)
- MIC Staphylococcus aureus (GC 3053) ([2]; strain GC 3053): 4 µg/mL (≈ 2.7 µM)
- MIC Staphylococcus aureus (GC 4541) ([2]; strain GC 4541): 1 µg/mL (≈ 0.674 µM)
- MIC Staphylococcus aureus (GC 4542) ([2]; strain GC 4542): 4 µg/mL (≈ 2.7 µM)
- MIC Staphylococcus aureus-SMITH (GC 4543) ([2]; strain GC 4543): 2 µg/mL (≈ 1.35 µM)
- MIC Staphylococcus aureus (GC 4544) ([2]; strain GC 4544): 4 µg/mL (≈ 2.7 µM)
- MIC Staphylococcus aureus (GC 4545) ([2]; strain GC 4545): 2 µg/mL (≈ 1.35 µM)
- MIC Staphylococcus haemolyticus (GC 4546) ([2]; strain GC 4546): 1 µg/mL (≈ 0.674 µM)
- MIC Coagulase Negative Staphylococcus (GC 4547) ([2]; strain GC 4547): 2 µg/mL (≈ 1.35 µM)
- MIC Coagulase Negative Staphylococcus (GC 4548) ([2]; strain GC 4548): 1 µg/mL (≈ 0.674 µM)
- MIC Coagulase Negative Staphylococcus (GC 4549) ([2]; strain GC 4549): 1 µg/mL (≈ 0.674 µM)
- MIC Coagulase Negative Staphylococcus (GC 4551) ([2]; strain GC 4551): 2 µg/mL (≈ 1.35 µM)
- MIC Enterococcus avium (GC 4558) ([3]; Enterococcus avium (GC 4558)): 2 µg/mL (≈ 1.35 µM)
- MIC Enterococcus faecalis (ATCC 29212) [3, 5]: 4 µg/mL (≈ 2.7 µM)
- MIC Enterococcus faecalis (GC 2242) [3, 6]: 4 µg/mL (≈ 2.7 µM)
- MIC Enterococcus faecalis (GC 2691) ([3]; Enterococcus faecalis (GC 2691)): 4 µg/mL (≈ 2.7 µM)
- MIC Enterococcus faecalis (GC 3059) ([3]; Enterococcus faecalis (GC 3059)): 4 µg/mL (≈ 2.7 µM)
- MIC Enterococcus faecalis (GC 4552) [3, 7]: 4 µg/mL (≈ 2.7 µM)
- MIC Enterococcus faecalis (GC 4553) [3, 8]: 2 µg/mL (≈ 1.35 µM)
- MIC Enterococcus faecalis (GC 4554) [3, 9]: 4 µg/mL (≈ 2.7 µM)
- MIC Enterococcus faecalis (GC 6189) ([3]; Enterococcus faecalis (GC 6189)): 4 µg/mL (≈ 2.7 µM)
- MIC Enterococcus faecium (GC 2243) ([3]; Enterococcus faecium (GC 2243)): 2 µg/mL (≈ 1.35 µM)
- MIC Enterococcus faecium (GC 4556) ([3]; Enterococcus faecium (GC 4556)): 4 µg/mL (≈ 2.7 µM)
- MIC Enterococcus faecium (GC 4557) ([3]; Enterococcus faecium (GC 4557)): 0.5 µg/mL (≈ 0.337 µM)
- MIC Enterococcus avium (GC 4558) [3, 10]: 2 µg/mL (≈ 1.35 µM)
- MIC Enterococcus faecalis (ATCC 29212) [3, 10]: 4 µg/mL (≈ 2.7 µM)
- MIC Enterococcus faecalis (GC 2242) [3, 10]: 4 µg/mL (≈ 2.7 µM)
- MIC Enterococcus faecalis (GC 2691) [3, 10]: 4 µg/mL (≈ 2.7 µM)
- MIC Enterococcus faecalis (GC 3059) [3, 10]: 4 µg/mL (≈ 2.7 µM)
- MIC Enterococcus faecalis (GC 4552) [3, 10]: 4 µg/mL (≈ 2.7 µM)
- MIC Enterococcus faecalis (GC 4553) [3, 10]: 2 µg/mL (≈ 1.35 µM)
- MIC Enterococcus faecalis (GC 4554) [3, 10]: 4 µg/mL (≈ 2.7 µM)
- MIC Enterococcus faecalis (GC 6189) [3, 10]: 4 µg/mL (≈ 2.7 µM)
- MIC Enterococcus faecium (GC 2243) [3, 10]: 2 µg/mL (≈ 1.35 µM)
- MIC Enterococcus faecium (GC 4556) [3, 10]: 4 µg/mL (≈ 2.7 µM)
- MIC Enterococcus faecium (GC 4557) [3, 10]: 0.5 µg/mL (≈ 0.337 µM)
- MIC Streptococcus agalactiae (GC 4564) [4, 11]: <0.12 µg/mL
- MIC Streptococcus pneumoniae (ATCC 6301) ([4]; Streptococcus pneumoniae (ATCC 6301)): 0.25 µg/mL (≈ 0.169 µM)
- MIC Streptococcus pneumoniae (GC 1894) ([4]; Streptococcus pneumoniae (GC 1894)): <0.12 µg/mL
- MIC Streptococcus pneumoniae (GC 4565) [4, 12]: 0.25 µg/mL (≈ 0.169 µM)
- MIC Streptococcus pyogenes (GC 4563) ([4]; Streptococcus pyogenes (GC 4563)): 0.25 µg/mL (≈ 0.169 µM)
- MIC Streptococcus agalactiae (GC 4564) [4, 10]: <0.12 µg/mL
- MIC Streptococcus pneumoniae (ATCC 6301) [4, 10]: 0.25 µg/mL (≈ 0.169 µM)
- MIC Streptococcus pneumoniae (GC 1894) [4, 10]: <0.12 µg/mL
- MIC Streptococcus pneumoniae (GC 4565) [4, 10]: 0.25 µg/mL (≈ 0.169 µM)
- MIC Streptococcus pyogenes (GC 4563) [4, 10]: 0.25 µg/mL (≈ 0.169 µM)

Structure (SMILES): CCCCCNC(=O)OCC1OC(OC2C(CO)OC(Oc3ccc(CC4NC(=O)C(C(C)c5ccccc5)NC(=O)CNC(=O)C(CO)NC(=O)C(C(O)C5CNC(=N)N5C5OC(CO)C(O)C(O)C5O)NC(=O)C(C(O)C5CNC(=N)N5)NC4=O)cc3)C(O)C2O)C(O)C(O)C1O (stereo not drawn) [Example 251b, γ-O-[(Pentylamino)carbonyl]-cyclo[glycyl-β-methylphenylalanyl-O-(4-O-hexopyranosylhexopyranosyl)tyrosyl-3-(2-iminoimidazolidin-4-yl)seryl-3-(3-hexopyranosyl-2-iminoimidazolidin-4-yl)serylseryl]]
- MIC Escherichia coli (ATCC 25922) ([1]; Escherichia coli (ATCC 25922)): >64 µg/mL
- MIC Escherichia coli (GC 4559) [1]: >64 µg/mL
- MIC Escherichia coli (GC 4560) [1]: 2 µg/mL (≈ 1.42 µM)
- MIC Coagulase Negative Staphylococcus (GC 4547) ([2]; Coagulase Negative Staphylococcus (GC 4547), 18 hours at 35° C.): 8 µg/mL (≈ 5.68 µM)
- MIC Coagulase Negative Staphylococcus (GC 4548) ([2]; Coagulase Negative Staphylococcus (GC 4548), 18 hours at 35° C.): 8 µg/mL (≈ 5.68 µM)
- MIC Coagulase Negative Staphylococcus (GC 4549) ([2]; Coagulase Negative Staphylococcus (GC 4549), 18 hours at 35° C.): 4 µg/mL (≈ 2.84 µM)
- MIC Coagulase Negative Staphylococcus (GC 4551) ([2]; Coagulase Negative Staphylococcus (GC 4551), 18 hours at 35° C.): 16 µg/mL (≈ 11.4 µM)
- MIC Coagulase Negative Staphylococcus (ID-3941) ([2]; Coagulase Negative Staphylococcus (ID-3941), 18 hours at 35° C.): 4 µg/mL (≈ 2.84 µM)
- MIC Staphylococcus aureus (ATCC 29213) ([2]; Staphylococcus aureus (ATCC 29213), 18 hours at 35° C.): 16 µg/mL (≈ 11.4 µM)
- MIC Staphylococcus aureus (GC 1131) ([2]; Staphylococcus aureus (GC 1131), 18 hours at 35° C.): 8 µg/mL (≈ 5.68 µM)
- MIC Staphylococcus aureus (GC 4541) ([2]; Staphylococcus aureus (GC 4541), 18 hours at 35° C.): 8 µg/mL (≈ 5.68 µM)
- MIC Staphylococcus aureus (GC 4542) ([2]; Staphylococcus aureus (GC 4542), 18 hours at 35° C.): 8 µg/mL (≈ 5.68 µM)
- MIC Staphylococcus aureus (GC 4544) ([2]; Staphylococcus aureus (GC 4544), 18 hours at 35° C.): 16 µg/mL (≈ 11.4 µM)
- MIC Staphylococcus aureus (GC 4545) ([2]; Staphylococcus aureus (GC 4545), 18 hours at 35° C.): 8 µg/mL (≈ 5.68 µM)
- MIC Staphylococcus aureus-SMITH (GC 4543) ([2]; Staphylococcus aureus-SMITH (GC 4543), 18 hours at 35° C.): 8 µg/mL (≈ 5.68 µM)
- MIC Staphylococcus haemolyticus (GC 4546) ([2]; Staphylococcus haemolyticus (GC 4546), 18 hours at 35° C.): 8 µg/mL (≈ 5.68 µM)
- MIC Enterococcus avium (GC 4558) ([3]; Enterococcus avium (GC 4558)): 64 µg/mL (≈ 45.4 µM)
- MIC Enterococcus faecalis (ATCC 29212) [3, 5]: 64 µg/mL (≈ 45.4 µM)
- MIC Enterococcus faecalis (GC 2242) [3, 6]: 32 µg/mL (≈ 22.7 µM)
- MIC Enterococcus faecalis (GC 4552) [3, 7]: 64 µg/mL (≈ 45.4 µM)
- MIC Enterococcus faecalis (GC 4553) [3, 8]: 64 µg/mL (≈ 45.4 µM)
- MIC Enterococcus faecalis (GC 4554) [3, 9]: 64 µg/mL (≈ 45.4 µM)
- MIC Enterococcus faecium (GC 2243) ([3]; Enterococcus faecium (GC 2243)): 64 µg/mL (≈ 45.4 µM)
- MIC Enterococcus faecium (GC 4556) ([3]; Enterococcus faecium (GC 4556)): 64 µg/mL (≈ 45.4 µM)
- MIC Enterococcus faecium (GC 4557) ([3]; Enterococcus faecium (GC 4557)): 4 µg/mL (≈ 2.84 µM)
- MIC Streptococcus agalactiae (GC 4564) [4, 11]: 4 µg/mL (≈ 2.84 µM)
- MIC Streptococcus pneumoniae (GC 4565) [4, 12]: 1 µg/mL (≈ 0.71 µM)
- MIC Streptococcus pyogenes (ID-3187) ([4]; Streptococcus pyogenes (ID-3187)): 2 µg/mL (≈ 1.42 µM)
